{
  "source": "patent EP0974351A2",
  "about": "“Medicament for preventing and treating gastrointestinal damage” (JOUVEINAL, priority 1998, dated 2000)",
  "test_system": "gastric lesions caused by indomethacin",
  "test": "Indomethacin-induced gastric lesions in rats (gabapentin pretreatment)",
  "type": "in vivo, Male Sprague-Dawley rats",
  "settings": "for gastric lesion (square area of visible lesions): indomethacin alone 42.6 ± 5.2",
  "experimental": "Gabapentin was evaluated in animals to determine its ability to prevent gastric lesions otherwise caused by indomethacin.\nMale Sprague-Dawley rats weighing 240 to 250 g were fasted for 24 hours and allowed free access to water prior to experiment. All test drugs were given intragastrically. Rats were pretreated with different doses of gabapentin at doses of 40 and 60 mg. Thirty minutes later indomethacin (25 mg/kg) was administered. Another group of rats received 10 mg of gabapentin twice, 3 hours apart, followed by indomethacin administration. Three hours after indomethacin treatment, the rats were killed and gastric lesions were assessed. The severity of the lesions were determined by the measurement of the square area (mm^2) of visible lesions.",
  "data": [
    {"compound": "NCC1(CC(=O)O)CCCCC1", "note": "[Gabapentin, 1-(aminomethyl)-cyclohexane acetic acid]", "values": [
      {"measurement": "gastric lesion (square area of visible lesions)", "setting": "gabapentin 10 mg twice, 3 hours apart, followed by indomethacin 25 mg/kg", "result": "4.2 ± 0.39", "unit": "mm^2"},
      {"measurement": "gastric lesion (square area of visible lesions)", "setting": "gabapentin 40 mg intragastrically 30 min before indomethacin 25 mg/kg, assessed 3 hours after indomethacin, mean ± SEM", "result": "22.3 ± 2.8", "unit": "mm^2"},
      {"measurement": "gastric lesion (square area of visible lesions)", "setting": "gabapentin 60 mg/kg (so in the source) intragastrically 30 min before indomethacin 25 mg/kg", "result": "16.5 ± 2.2", "unit": "mm^2"},
      {"measurement": "gastric bleeding", "setting": "gabapentin pretreatment before indomethacin 25 mg/kg", "result": "dramatically reduced"}
    ]}
  ]
}
